*1 amine or outer side, *2 acyl side, *3 side chain or, on linkers, in order; H or OH if unused. Where a SMILES comes first, the peptide text is derived from it. Side-chain parts run from the residue outwards. [ ]: non-standard residue; d: D form. The star is where a group is joined. C18 diacid = O=C(O)CCCCCCCCCCCCCCCCC(=O)*; γGlu = O=C(O)[C@H](CCC(=O)[*:2])N[*:1]; AEEA = NCCOCCOCC(=O)O; Aib = CC(C)(N)C(=O)O
How the values were obtained:
[1] = molecular target: T1, CFR1R receptor (Homo sapiens, UniProt P34998); assay: Activity at anti-target CFR1R receptor, cAMP assay in CRF1R-overexpression CHO-K1 cells; assay type: cell-based; details: 100% = Sauvagine at 100 nM; for EC50: cAMP
T1 construct: host or cells: CHO-K1 (clone 2)
T1 sequence (P34998 24-415): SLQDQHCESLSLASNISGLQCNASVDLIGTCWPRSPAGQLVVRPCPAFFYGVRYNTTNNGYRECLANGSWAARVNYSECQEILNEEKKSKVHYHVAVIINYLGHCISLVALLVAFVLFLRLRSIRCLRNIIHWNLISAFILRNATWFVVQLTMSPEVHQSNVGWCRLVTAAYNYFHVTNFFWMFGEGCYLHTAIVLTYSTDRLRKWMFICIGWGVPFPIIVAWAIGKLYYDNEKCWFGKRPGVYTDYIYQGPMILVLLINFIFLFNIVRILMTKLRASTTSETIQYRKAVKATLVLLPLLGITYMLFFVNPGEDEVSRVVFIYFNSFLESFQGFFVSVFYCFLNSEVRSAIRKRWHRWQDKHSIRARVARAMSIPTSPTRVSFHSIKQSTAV
How it was run: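 Clone 2; cryopreserved stocks (10% DMSO); 4000 cells/well final; 100% activation = Sauvagine 100 nM; otherwise as TeloHAEC protocol.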

[2] = molecular target: T2, human CRF2a receptor (Homo sapiens, UniProt Q13324); assay: Activity at human CRF2a receptor, cAMP functional assay in TeloHEAC cells; assay type: cell-based; details: TeloHEAC cells stably expressing human CRF2a receptor, relative to urocortin 2 (100 nM = 100%)
T2 construct: expressed in transfected cells; host or cells: TeloHEAC cells
T2 sequence (Q13324 1-411): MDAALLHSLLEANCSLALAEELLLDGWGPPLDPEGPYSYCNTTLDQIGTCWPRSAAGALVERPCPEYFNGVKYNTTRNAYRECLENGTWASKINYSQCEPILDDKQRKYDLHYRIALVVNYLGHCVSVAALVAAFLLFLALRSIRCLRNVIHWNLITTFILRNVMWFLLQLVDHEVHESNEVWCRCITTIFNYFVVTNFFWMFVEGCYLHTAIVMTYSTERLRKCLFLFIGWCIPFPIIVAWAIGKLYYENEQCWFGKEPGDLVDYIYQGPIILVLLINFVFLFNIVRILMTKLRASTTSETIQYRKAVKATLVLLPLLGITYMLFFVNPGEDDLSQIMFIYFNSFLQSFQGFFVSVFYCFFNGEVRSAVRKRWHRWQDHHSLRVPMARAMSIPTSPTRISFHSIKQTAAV
How it was run: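 cAMP accumulation was measured by HTRF 665/620 nm ratio after 30 min at 37° C compound exposure (16 twofold dilutions) of CRF2a-expressing TeloHEAC cells, 10000/well, in HEPES-buffered HBSS plus IBMX. Activity was normalised to urocortin 2 at 100 nM (100%), and EC50 was the concentration giving half-maximal activation.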

| SMILES | Emax (% I) [1] | EC50 [1] | EC50 [2] |
| --- | --- | --- | --- |
| CC[C@H](C)[C@H](NC(=O)[C@H](CCC(N)=O)NC(=O)[C@H](C)NC(=O)[C@H](CC(N)=O)NC(=O)[C@@H](NC(=O)[C@H](CCC(=O)O)NC(=O)[C@H](C)NC(=O)[C@H](CCC(N)=O)NC(=O)[C@H](CCC(=O)O)NC(=O)[C@H](CCCNC(=N)N)NC(=O)[C@H](CCC(N)=O)NC(=O)[C@H](CCCCN)NC(=O)[C@H](CCCCN)NC(=O)[C@H](CCC(N)=O)NC(=O)[C@H](CCCCN)NC(=O)[C@H](CCC(=O)O)NC(=O)[C@H](CCC(N)=O)NC(=O)[C@H](CCC(=O)O)NC(=O)[C@H](CC(C)C)NC(=O)[C@H](CC(C)C)NC(=O)[C@@H](NC(=O)[C@H](CCCCN)NC(=O)[C@H](CCCCNC(=O)COCCOCCNC(=O)COCCOCCNC(=O)CC[C@H](NC(=O)CCCCCCCCCCCCCCCCC(=O)O)C(=O)O)NC(=O)[C@H](CC(C)C)NC(=O)[C@H](CCCCN)NC(=O)[C@@H](NC(=O)[C@@H]1CCCN1C(=O)[C@H](NC(=O)[C@H](CC(=O)O)NC(=O)[C@H](CC(C)C)NC(=O)[C@H](CO)NC(=O)[C@H](CC(C)C)NC(=O)[C@@H](NC(C)=O)C(C)C)C(C)C)[C@@H](C)CC)[C@@H](C)CC)[C@@H](C)O)C(=O)N[C@@H](CC(C)C)C(=O)N[C@@H](C)C(=O)N[C@@H](CCC(N)=O)C(=O)N[C@H](C(N)=O)C(C)C [compound 101] (Ac-VLSLD[dV]PIKLK([AEEA-AEEA-γGlu-C18 diacid])KILLEQEKQKKQREQAETNAQILAQV-NH2) | 0 % I | > 250 nM | 1.74 nM |
| CC[C@H](C)[C@H](NC(C)=O)C(=O)N[C@H](C(=O)N[C@@H](CC(C)C)C(=O)N[C@@H](CO)C(=O)N[C@@H](CC(C)C)C(=O)N[C@@H](CC(=O)O)C(=O)N[C@@H](C(=O)N1CCC[C@H]1C(=O)N[C@H](C(=O)N[C@@H](CCCCN)C(=O)N[C@@H](CC(C)C)C(=O)N[C@@H](CCCCNC(=O)COCCOCCNC(=O)COCCOCCNC(=O)CC[C@H](NC(=O)CCCCCCCCCCCCCCCCC(=O)O)C(=O)O)C(=O)N[C@@H](CCCCN)C(=O)N[C@H](C(=O)N[C@@H](CC(C)C)C(=O)N[C@@H](CC(C)C)C(=O)N[C@@H](CCC(=O)O)C(=O)N[C@@H](CCC(N)=O)C(=O)N[C@@H](CCC(=O)O)C(=O)N[C@@H](CCCCN)C(=O)N[C@@H](CCC(N)=O)C(=O)N[C@@H](CCCCN)C(=O)N[C@@H](CCCCN)C(=O)N[C@@H](CCC(N)=O)C(=O)N[C@@H](CCCNC(=N)N)C(=O)N[C@@H](CCC(=O)O)C(=O)N[C@@H](CCC(N)=O)C(=O)N[C@@H](C)C(=O)N[C@@H](CCC(=O)O)C(=O)N[C@H](C(=O)N[C@@H](CC(N)=O)C(=O)N[C@H](C(=O)N[C@@H](CCC(N)=O)C(=O)N[C@H](C(=O)N[C@@H](CC(C)C)C(=O)N[C@@H](C)C(=O)N[C@@H](CCC(N)=O)C(=O)N[C@H](C(N)=O)C(C)C)[C@@H](C)CC)C(C)C)[C@@H](C)O)[C@@H](C)CC)[C@@H](C)CC)C(C)C)C(C)C [compound 103] (Ac-IVLSLD[dV]PIKLK([AEEA-AEEA-γGlu-C18 diacid])KILLEQEKQKKQREQAETNVQILAQV-NH2) | 3 % I | > 250 nM | 3.09 nM |

The remaining lines, values ahead:

| Emax (% I) [1] | EC50 [1] | EC50 [2] | SMILES |
| --- | --- | --- | --- |
| 0 % I | > 250 nM | 3.17 nM | CC[C@H](C)[C@H](NC(C)=O)C(=O)N[C@H](C(=O)N[C@@H](CC(C)C)C(=O)N[C@@H](CO)C(=O)N[C@@H](CC(C)C)C(=O)N[C@@H](CC(=O)O)C(=O)N[C@H](C(=O)N1CCC[C@H]1C(=O)N[C@H](C(=O)N[C@@H](CCCCN)C(=O)N[C@@H](CC(C)C)C(=O)N[C@@H](CCCCNC(=O)COCCOCCNC(=O)COCCOCCNC(=O)CC[C@H](NC(=O)CCCCCCCCCCCCCCCCC(=O)O)C(=O)O)C(=O)N[C@@H](CCCCN)C(=O)N[C@H](C(=O)N[C@@H](CC(C)C)C(=O)N[C@@H](CC(C)C)C(=O)N[C@@H](CCC(=O)O)C(=O)N[C@@H](CCC(N)=O)C(=O)N[C@@H](CCC(=O)O)C(=O)N[C@@H](CCCCN)C(=O)N[C@@H](CCC(N)=O)C(=O)N[C@@H](CCCCN)C(=O)N[C@@H](CCCCN)C(=O)N[C@@H](CCC(N)=O)C(=O)N[C@@H](CCCNC(=N)N)C(=O)N[C@@H](CCC(=O)O)C(=O)N[C@@H](CCC(N)=O)C(=O)N[C@@H](C)C(=O)N[C@@H](CCC(=O)O)C(=O)N[C@H](C(=O)N[C@@H](CC(N)=O)C(=O)NC(C)(C)C(=O)N[C@@H](CCC(N)=O)C(=O)N[C@H](C(=O)N[C@@H](CC(C)C)C(=O)N[C@@H](C)C(=O)N[C@@H](CCC(N)=O)C(=O)N[C@H](C(N)=O)C(C)C)[C@@H](C)CC)[C@@H](C)O)[C@@H](C)CC)[C@@H](C)CC)C(C)C)C(C)C [compound 97] (Ac-IVLSLDVPIKLK([AEEA-AEEA-γGlu-C18 diacid])KILLEQEKQKKQREQAETN[Aib]QILAQV-NH2) |
| 0 % I | > 250 nM | 6.07 nM | CC[C@H](C)[C@H](NC(=O)[C@H](CCC(N)=O)NC(=O)C(C)(C)NC(=O)[C@H](CC(N)=O)NC(=O)[C@@H](NC(=O)[C@H](CCC(=O)O)NC(=O)[C@H](C)NC(=O)[C@H](CCC(N)=O)NC(=O)[C@H](CCC(=O)O)NC(=O)[C@H](CCCNC(=N)N)NC(=O)[C@H](CCC(N)=O)NC(=O)[C@H](CCCCN)NC(=O)[C@H](CCCCN)NC(=O)[C@H](CCC(N)=O)NC(=O)[C@H](CCCCN)NC(=O)[C@H](CCC(=O)O)NC(=O)[C@H](CCC(N)=O)NC(=O)[C@H](CCC(=O)O)NC(=O)[C@H](CC(C)C)NC(=O)[C@H](CC(C)C)NC(=O)[C@@H](NC(=O)[C@H](CCCCN)NC(=O)[C@H](CCCCNC(=O)COCCOCCNC(=O)COCCOCCNC(=O)CC[C@H](NC(=O)CCCCCCCCCCCCCCCCC(=O)O)C(=O)O)NC(=O)[C@H](CC(C)C)NC(=O)[C@H](CCCCN)NC(=O)[C@@H](NC(=O)[C@@H]1CCCN1C(=O)[C@H](NC(=O)[C@H](CC(=O)O)NC(=O)[C@H](CC(C)C)NC(=O)[C@H](CO)NC(=O)[C@H](CC(C)C)NC(=O)[C@@H](NC(C)=O)C(C)C)C(C)C)[C@@H](C)CC)[C@@H](C)CC)[C@@H](C)O)C(=O)N[C@@H](CC(C)C)C(=O)N[C@@H](C)C(=O)N[C@@H](CCC(N)=O)C(=O)N[C@H](C(N)=O)C(C)C [compound 99] (Ac-VLSLD[dV]PIKLK([AEEA-AEEA-γGlu-C18 diacid])KILLEQEKQKKQREQAETN[Aib]QILAQV-NH2) |
| −5 % I | > 250 nM | 17.6 nM | CC[C@H](C)[C@H](NC(C)=O)C(=O)N[C@H](C(=O)N[C@@H](CC(C)C)C(=O)N[C@@H](CO)C(=O)N[C@@H](CC(C)C)C(=O)N[C@@H](CC(=O)O)C(=O)N[C@H](C(=O)N1CCC[C@H]1C(=O)N[C@H](C(=O)N[C@@H](CCCCN)C(=O)N[C@@H](CC(C)C)C(=O)N[C@@H](CCCCNC(=O)COCCOCCNC(=O)COCCOCCNC(=O)CC[C@H](NC(=O)CCCCCCCCCCCCCCCCC(=O)O)C(=O)O)C(=O)N[C@@H](CCCCN)C(=O)N[C@H](C(=O)N[C@@H](CC(C)C)C(=O)N[C@@H](CC(C)C)C(=O)N[C@@H](CCC(=O)O)C(=O)N[C@@H](CCC(N)=O)C(=O)N[C@@H](CCC(=O)O)C(=O)N[C@@H](CCCCN)C(=O)N[C@@H](CCC(N)=O)C(=O)N[C@@H](CCCCN)C(=O)N[C@@H](CCCCN)C(=O)N[C@@H](CCC(N)=O)C(=O)N[C@@H](CCCNC(=N)N)C(=O)N[C@@H](CCC(=O)O)C(=O)N[C@@H](CCC(N)=O)C(=O)N[C@@H](C)C(=O)N[C@@H](CCC(=O)O)C(=O)N[C@H](C(=O)N[C@@H](CC(N)=O)C(=O)N[C@H](C(=O)N[C@@H](CCC(N)=O)C(=O)N[C@H](C(=O)N[C@@H](CC(C)C)C(=O)N[C@@H](C)C(=O)N[C@@H](CCC(N)=O)C(=O)N[C@H](C(N)=O)C(C)C)[C@@H](C)CC)C(C)C)[C@@H](C)O)[C@@H](C)CC)[C@@H](C)CC)C(C)C)C(C)C [compound 102] (Ac-IVLSLDVPIKLK([AEEA-AEEA-γGlu-C18 diacid])KILLEQEKQKKQREQAETNVQILAQV-NH2) |

— patent publication US20260001928A1 (CORTERIA PHARMACEUTICALS, priority 2022, published 2026)
